Experiments:
[1] = test system: human Caco-2 cells; assay: Caco-2 permeability
[2] = target: human ether-à-go-go-related gene (hERG) potassium current (Homo sapiens, UniProt Q12809); assay: hERG potassium current inhibition
[3] = test system: human plasma proteins; settings: literature (Wan Aasim 2017); cited from earlier work
[4] = single 100 mg dose of MDMA (Segura 2005); cited from earlier work
[5] = target: organic anion transporter (OAT1) (Homo sapiens, UniProt Q4U2R8); assay: Transporter inhibition, OAT1
[6] = test system: participants with severe PTSD; assay: MAPP1 Phase 3: safety, adverse events; type: in vivo, human
Description: MAPP1 was a Phase 3 randomized, placebo-controlled, 2-arm, double-blind, multi-site study conducted to investigate the efficacy and safety of MDMA-AT in participants with severe PTSD. This study is also discussed in Mitchell et. al., Nature Medicine 2021, 27, 1025-1033. This study included 3 experimental sessions of therapy combined with either MDMA·HCl or placebo. During Experimental Session 1, participants received a split dose of 120 mg (80 mg+40 mg).
There were 2 serious TEAEs in the placebo with therapy group (1 participant with 2 events of suicide attempt [1 moderate and 1 severe] and 1 participant with 1 event of suicidal ideation [severe], Listing 14.3.2.2.3). Adverse events of special interest included a subset of AEs involving cardiac function, suicidality, and MDMA abuse. There were 3 (6.5%) participants in the MDMA-AT group and 6 (13.6%) participants in the placebo with therapy group with a TEAE of special interest. The majority of AESIs were associated with suicidality (reported by […]) and 1 participant in the placebo group reported 2 AESIs that were associated with cardiac function (palpitations and irregular heart rate). […] A total of 4 participants discontinued study treatment due to a TEAE (MDMA: 1 participant [severe TEAE of depression]; placebo: 3 participants [1 participant with 2 serious adverse events (SAEs) of suicide attempt, 1 participant with a SAE of suicidal ideation, and 1 participant with 1 severe TEAE of insomnia]. The majority of participants in the MDMA-AT group (97.8%) and the placebo with therapy group (90.9%) had at least 1 temporally related TEAE (TEAEs that occurred during an experiment session or up to 2 days following); none of these events were SAEs. A listing of all TEAEs from MDMA-AT group with ≥5% incidence and twice prevalence of placebo group is provided below in Table 37. Table 37.

Chain of human ether-à-go-go-related gene (hERG) potassium current (Q12809 whole entry): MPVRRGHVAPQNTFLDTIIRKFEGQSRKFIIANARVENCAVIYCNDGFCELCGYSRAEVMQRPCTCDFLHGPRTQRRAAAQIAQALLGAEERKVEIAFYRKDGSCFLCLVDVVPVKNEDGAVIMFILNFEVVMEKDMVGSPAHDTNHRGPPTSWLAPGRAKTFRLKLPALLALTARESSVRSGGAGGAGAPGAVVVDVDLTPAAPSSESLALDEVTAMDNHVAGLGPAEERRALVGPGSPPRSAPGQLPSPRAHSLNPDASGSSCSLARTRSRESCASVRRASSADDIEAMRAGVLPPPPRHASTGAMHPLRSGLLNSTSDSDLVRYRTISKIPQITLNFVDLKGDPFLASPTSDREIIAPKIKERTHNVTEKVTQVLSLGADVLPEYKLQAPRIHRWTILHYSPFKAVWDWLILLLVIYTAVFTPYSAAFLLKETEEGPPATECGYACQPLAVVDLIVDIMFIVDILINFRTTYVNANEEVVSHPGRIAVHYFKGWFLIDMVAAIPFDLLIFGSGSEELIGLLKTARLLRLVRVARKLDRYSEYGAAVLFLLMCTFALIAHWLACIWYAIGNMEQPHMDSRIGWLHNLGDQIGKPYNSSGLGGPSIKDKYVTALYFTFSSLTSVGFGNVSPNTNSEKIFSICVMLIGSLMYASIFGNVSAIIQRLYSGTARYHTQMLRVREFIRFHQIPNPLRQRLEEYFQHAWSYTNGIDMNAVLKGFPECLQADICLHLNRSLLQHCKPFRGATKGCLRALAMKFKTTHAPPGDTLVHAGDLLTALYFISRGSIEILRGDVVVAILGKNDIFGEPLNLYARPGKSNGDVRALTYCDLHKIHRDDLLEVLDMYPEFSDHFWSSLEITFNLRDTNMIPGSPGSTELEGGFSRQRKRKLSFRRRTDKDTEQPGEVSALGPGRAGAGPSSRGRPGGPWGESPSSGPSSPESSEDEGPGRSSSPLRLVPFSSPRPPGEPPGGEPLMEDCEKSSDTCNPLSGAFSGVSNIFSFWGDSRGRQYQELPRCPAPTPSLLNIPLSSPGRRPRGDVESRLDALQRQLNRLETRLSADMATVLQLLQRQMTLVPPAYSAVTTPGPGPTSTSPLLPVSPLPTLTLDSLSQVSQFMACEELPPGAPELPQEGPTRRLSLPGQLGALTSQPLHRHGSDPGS
Chain of organic anion transporter (OAT1) (Q4U2R8 whole entry): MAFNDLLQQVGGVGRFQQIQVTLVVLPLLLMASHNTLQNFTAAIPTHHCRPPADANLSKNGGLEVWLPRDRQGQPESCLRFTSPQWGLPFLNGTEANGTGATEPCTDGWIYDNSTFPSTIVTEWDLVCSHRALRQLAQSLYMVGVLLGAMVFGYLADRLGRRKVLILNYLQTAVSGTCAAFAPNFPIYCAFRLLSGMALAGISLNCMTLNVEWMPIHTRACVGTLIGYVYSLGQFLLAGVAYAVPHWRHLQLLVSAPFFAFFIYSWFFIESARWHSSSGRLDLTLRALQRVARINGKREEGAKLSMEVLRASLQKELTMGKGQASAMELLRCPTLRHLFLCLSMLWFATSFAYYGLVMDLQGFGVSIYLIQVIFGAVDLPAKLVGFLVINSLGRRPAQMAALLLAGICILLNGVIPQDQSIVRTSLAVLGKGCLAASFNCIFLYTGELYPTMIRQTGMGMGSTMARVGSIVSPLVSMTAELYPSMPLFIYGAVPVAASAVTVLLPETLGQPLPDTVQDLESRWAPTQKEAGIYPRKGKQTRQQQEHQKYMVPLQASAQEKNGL

## CNC(C)Cc1ccc2c(c1)OCO2 (centres unmarked) [MDMA, 3,4-methylenedioxymethamphetamine]
[1]
  permeability in human Caco-2 cells: highly permeable
[2]
  IC50: 206 µM
[2]; human
  Hill coefficient, hERG: 1.1
[2]; supratherapeutic single dose of 180 mg MDMA HCl
  margin of hERG IC50 over clinical plasma concentration: 111 x
[3]
  bound to plasma proteins in humans: 51%
[4]
  increase of AUC0-8 hr of paroxetine (20 mg): 3 fold
  increase of Cmax of paroxetine (20 mg): 2.5 fold
[5]
  inhibition of OAT1: not an inhibitor
[6]; MAPP1
  AESIs of MDMA abuse: no AESIs of MDMA abuse
  TEAE Blood pressure increased, %: (10.9) %
  TEAE Bruxism, %: (13.0) %
  TEAE Chills, %: (6.5) %
  TEAE Decreased appetite, %: (52.2) %
  TEAE Dizziness postural, %: (13.0) %
  TEAE Dry mouth, %: (10.9) %
  TEAE Feeling cold, %: (19.6) %
  TEAE Feeling jittery, %: (10.9) %
  TEAE Hyperhidrosis, %: (21.7) %
  TEAE Intrusive thoughts, %: (8.7) %
  TEAE Micturition urgency, %: (6.5) %
  TEAE Muscle tightness, %: (60.9) %
  TEAE Muscle twitching, %: (6.5) %
  TEAE Musculoskeletal pain, %: (8.7) %
  TEAE Mydriasis, %: (15.2) %
  TEAE Nausea, %: (30.4) %
  TEAE Nervousness, %: (6.5) %
  TEAE Non-cardiac chest pain, %: (8.7) %
  TEAE Nystagmus, %: (13.0) %
  TEAE Pain, %: (8.7) %
  TEAE Pollakiuria, %: (8.7) %
  TEAE Pyrexia, %: (6.5) %
  TEAE Restlessness, %: (15.2) %
  TEAE Somnolence, %: (6.5) %
  TEAE Stress, %: (8.7) %
  TEAE Substance use, %: (6.5) %
  TEAE Vision blurred, %: (8.7) %
  TEAE Vomiting, %: (8.7) %
  participants with a TEAE of special interest: 6.5%
[6]; MAPP1, Safety Set
  At least one Serious TEAE Leading to Death, %: (0.0) %
  At least one Serious TEAE, %: (0.0) %
  At least one TEAE of Special Interest, %: (6.5) %
  Discontinued study treatment due to any TEAE(s), %: (2.2) %
  Participants with at least 1 TEAE during Experimental Sessions and 2 Days Following, %: (97.8) %
  Subjects with at least 1 Severe TEAE, %: (8.7) %
  Subjects with at least 1 TEAE, %: (100.0) %
[6]; MAPP1, dose-dependent, no clinical intervention required
  heart rate and blood pressure during experimental sessions: transient increases
[6]; MAPP1, during an experiment session or up to 2 days following
  participants with at least 1 temporally related TEAE: 97.8%

Reference: patent US20250134855A1, “CO[…] AND METHODS OF USING SAME” (LYKOS THERAPEUTICS, INC., priority 2022, published 2025)
